Assay results: patent EP3829564B1, “CURCUMIN AND HOMOTAURINE FOR USE IN PREVENTING OR TREATING COGNITIVE DECLINE FORMS” (ALERE VITAM S.R.L., priority 2018, dated 2020)

Key:
[1] = target: T1, Aβ42 peptide (Homo sapiens, UniProt P05067); experiment: Thioflavin-T assay for inhibition of Aβ 42 aggregation; type: biochemical
T1 construct: Beta-amyloid (Aβ 1-42) aggregation studies were conducted; purchased AnaSpec, Inc, Fremont, CA
Method: In the present study, the fluorescence spectroscopy with thioflavin T was used to examine the effects of curcumin (CUR), homotaurine (HOM) taken individually and a combination of the two compounds as disclosed herein on the formation of toxic Aβ aggregates.
Thioflavin-T (Th-T dosage), analysis for the inhibition of the Aβ 42 aggregation (also referred to AB42).
Beta-amyloid (Aβ 1-42) aggregation studies were conducted using the SensoLyte ThT Ab42 aggregation kit (AnaSpec, Inc, Fremont, CA).
The Aβ42 peptide was dissolved in a cold analysis buffer (4 °C) and allowed to hydrate for a few minutes. The solution was centrifuged at 10,000 rpm for 5 minutes at 4°C to centrifuge any precipitated material. The fibrillation reaction was initiated by adding thioflavin dye (ThT) at a concentration of 2 mmol/L.
Three test samples (CUR; HOM; CUR + HOM) were added in a volume of 5 µL and the reaction was started by adding the Aβ42 peptide solution. The final volume of the test samples was 100 µL. At the same time, the positive control and the negative control containing nordihydroguaiaretic acid (NDGA), a well-defined inhibitor of Ab aggregation, at the final concentration of 100 µmol/L were established. Fluorescence intensity was measured at 37°C with Ex/Em ¼ 440 nm/484 nm and by shaking of 15s between readings using the microplate reader (Synergy H1; BioTek, Winooski, VT). The fluorescence intensity measurements expressed as relative fluorescence units (RFU) were taken for 90 minutes at 5-minute intervals.

[2] = system: transgenic Alzheimer's mouse (Tg2576); settings: dietary regime containing curcumin for 6 months; cited from earlier work
[3] = system: HO-1; settings: 6 hours; for increase in HO-1 mRNA: 5, 10, 15 and 30 µM, cortical neurons, astrocytes and endothelial cells; for concentration of maximum HO-1 mRNA: tested 5, 10, 15 and 30 µM
Method: (§1) To confirm that the expression of the HO-1 gene measured at the mRNA level corresponded to an equivalent increase in heme oxygenase activity, this activity was measured at the same doses of curcumin and homotaurine 6 and 24 hours after administration.

[4] = target: T2, Aβ42 oligomer (Homo sapiens, UniProt P05067); settings: prior art statement; cited from earlier work
T2 construct: prevents the formation and the toxicity of Aβ42 oligomer
T2 sequence (P05067 672-713): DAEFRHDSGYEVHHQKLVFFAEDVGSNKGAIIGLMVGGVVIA

[5] = system: Nrf2; experiment: Nrf2 protein expression in nuclear extracts (Western blot); type: cell-based, rat; settings: 25 µM; for expression of the Nrf2 protein in nuclear extracts: cortical neurons, astrocytes and endothelial cells, over time, three independent Western blots
Method: Three different cell lines, cortical neurons, astrocytes and endothelial cells, were exposed to curcumin, homotaurine or a combination of the two compounds at the final concentration of 25 µM to evaluate the expression of the Nrf2 protein over time.
The rat hippocampal neurons (H 19-7) were purchased by the American Type Culture Collection (Manassas, VA, USA) and cultured according to the manufacturer's instructions.
The neurons were washed twice with 1X PBS. The cells were then collected in 1 ml of 1X PBS and centrifuged at 3000 rpm for 3 min at 4°C. The cell pellet was carefully resuspended in […] of cold buffer containing HEPES 10 mM (pH 7.9), KCI 10 mM, EDTA 0.1 mM, EGTA 0.1 mM, DTT 1 µM and complete protease inhibitor cocktail (Roche, Mannheim, Germany).
The pellet was then incubated on ice for 15 minutes to allow the cells to swell. After this time, 15 µl of 10% of NP-40 were added and the tube was vortexed for 10 s. The homogenate was then centrifuged at 3000 rpm for 3 min at 4°C and the nuclear pellet was resuspended in 30 µl of cold buffer consisting of HEPES 20 mM (pH 7.9), NaCl 0,4 M, EDTA 1 mM, EGTA 1 mM, DTT 1 µM and protease inhibitors. The pellet was then incubated on ice for 15 minutes and vortexed for 10-15 s every 2 minutes. The nuclear extract was finally centrifuged at 13,000 rpm for 5 minutes at 4°C. The supernatant containing the nuclear proteins was resolved with SDS-polyacrylamide gel and subjected to immunoblot analysis using anti-Nrf2 antibodies (dilution 1: 500) and anti-Sp1 (dilution 1: 500).

[6] = target: Aβ40 (Homo sapiens, UniProt P05067); settings: compared with ibuprofen and naproxen; cited from earlier work
Sequence of Aβ40 (P05067 672-711): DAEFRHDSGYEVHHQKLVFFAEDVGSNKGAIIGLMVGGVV

[7] = system: heme oxygenase; experiment: Heme oxygenase activity in treated cells; type: cell-based; settings: same doses; 6 and 24 hours after administration
Method: as §1

[8] = system: HO-1; experiment: cells; settings: 6 h, read-out: maximum increase in HO-1 mRNA, relative to the non-inducible paralogue HO-2 gene
Method: as §1

[9] = fibrillation time 30 min and 90 min, vs control

T1 sequence (P05067 672-713 limits assumed): as the sequence (P05067 672-713) above

CC(Cc1ccc(O)c(O)c1)C(C)Cc1ccc(O)c(O)c1 (centres unmarked) [NDGA, nordihydroguaiaretic acid]
Aβ aggregation (ThT fluorescence) ([1]; 100 µmol/L, control inhibitor): inhibitor of the Aβ aggregation (p <.001)

COc1cc(C=CC(=O)CC(=O)C=Cc2ccc(O)c(OC)c2)ccc1O [curcumin, 1,7-bis [4-Hydroxy-3-methoxyphenyl]-1,6-heptadiene-3,5-dione]
cognitive deficits induced by Aβ amyloid [2]: reverses the cognitive deficits induced by Aβ amyloid | indices of oxidative damage and inflammation in the brain [2]: suppression of the indices of the oxidative damage and the inflammation in the brain | increase in HO-1 mRNA [3]: dosedependent increase in HO-1 mRNA | concentration of maximum HO-1 mRNA [3]: 15 µM | concentration preventing formation and toxicity of Aβ42 oligomer [4]: 0.1 to 11.0 µM | time Nrf2 expression remained upregulated ([5]; after treatment): up to 12 hours | expression of the Nrf2 protein in nuclear extracts [5]: significant timedependent increase | Aβ40 aggregation inhibition [6]: better than ibuprofen and naproxen | heme oxygenase activity [7]: comparable to the results obtained by looking at cellular mRNAs | maximal fold induction at 15 µM [8]: ~6 | Aβ aggregation (ThT fluorescence) [1, 9]: significantly influence the fibrillation reaction

NCCCS(=O)(=O)O [homotaurine, 3-amino-1-propanesulfonic acid]
increase in HO-1 mRNA [3]: much less active in inducing the expression of the HO-1 gene | concentration of maximum HO-1 mRNA [3]: 15 µM | expression of the Nrf2 protein in nuclear extracts [5]: lower increase in nuclear Nrf2 | heme oxygenase activity [7]: comparable to the results obtained by looking at cellular mRNAs | Aβ aggregation (ThT fluorescence) [1, 9]: significantly influence the fibrillation reaction
